The test system of test [1] is BMSC (primary human bone marrow mesenchymal stromal cells). Kind of test: absolute EC50 for viability; higher = less sensitive.
For test [2] the test system is unchanged. Kind of test: drug sensitivity score (DSS); higher = more sensitive.

In the case of `CCOCc1nc2c(N)nc3ccccc3c2n1CC(C)(C)O` [Resiquimod], the “absolute EC50 for viability” value in test [1] is greater than 10 µM. In test [2], this molecule yielded a drug sensitivity score of 0.
Turning to `COC(=O)c1ccc2c(C(=Nc3ccc(N(C)C(=O)CN4CCN(C)CC4)cc3)c3ccccc3)c(O)[nH]c2c1` [Nintedanib], the “absolute EC50 for viability” value in test [1] amounted to 2.56 µM. The molecule also returned a drug sensitivity score in test [2] of 9.7.
Consider `CC[C@H](Nc1ncnc2[nH]cnc12)c1nc2cccc(F)c2c(=O)n1-c1ccccc1` [Idelalisib], for which, in test [1], the “absolute EC50 for viability” value is greater than 10 µM. This molecule registered a drug sensitivity score in test [2] of 2.7.
Take `CC/C(=C(\c1ccc(O)cc1)c1ccc(OCCN(C)C)cc1)c1ccccc1` [4-hydroxytamoxifen]: the “absolute EC50 for viability” value in test [1] worked out at 9.93 µM. The molecule further registered a drug sensitivity score in test [2] of 0.
For `O=C(O)c1ccc(CN2CCC(CN[C@@H]3C[C@H]3c3ccccc3)CC2)cc1`, the “absolute EC50 for viability” value in test [1] is greater than 100 µM. Also, in test [2], the drug sensitivity score was 0.
The like results for `CS(=O)(=O)c1ccc(C(=O)Nc2ccc(Cl)c(-c3ccccn3)c2)c(Cl)c1` [Vismodegib] were, in that order, greater than 10 µM and 0.
The like results for `CC(C)[C@@H](CS(=O)(=O)C(C)C)N1C(=O)[C@@](C)(CC(=O)O)C[C@H](c2cccc(Cl)c2)[C@H]1c1ccc(Cl)cc1` [AMG-232] were, in that order, 0.185 µM and 18.7.
Regarding `CC(=O)O[C@]1(C(C)=O)CC[C@H]2[C@@H]3C=C(C)C4=CC(=O)CC[C@]4(C)[C@H]3CC[C@@]21C` [Megestrol acetate], in test [1], the “absolute EC50 for viability” value was greater than 10 µM. This molecule also showed a drug sensitivity score in test [2] of 0.
Consider `Nc1nc(Nc2ccc3c(c2)CC[C@@H](N2CCCC2)CC3)nn1-c1cc2c(nn1)-c1ccccc1CCC2` [BGB324], for which the “absolute EC50 for viability” value in test [1] was found to be 2.49 µM. In test [2], this molecule yielded a drug sensitivity score of 6.7.
The like results for `CNC(=O)c1cccc(-c2ccc3c(N4CCOC[C@@H]4C)nc(N4CCOC[C@@H]4C)nc3n2)c1` [Vistusertib] were, in that order, 0.488 µM and 13.7.
Take `Clc1ccc(Nc2nnc(Cc3ccncc3)c3ccccc23)cc1` [Vatalanib]: the “absolute EC50 for viability” value in test [1] was greater than 10 µM. The same molecule gave a drug sensitivity score in test [2] of 0.
The like results for `CC1(N)CCN(c2cnc(-c3cccc(Cl)c3Cl)c(N)n2)CC1` [NVP-SHP099] were, in that order, greater than 10 µM and 0.
For `CC(=O)c1cnc2ccc(-c3cc(Cl)c(O)c(Cl)c3)nc2c1N[C@H]1CC[C@H](CN(C)C)CC1` [OTS167], the “absolute EC50 for viability” value in test [1] was greater than 1 µM. Moreover, the drug sensitivity score in test [2] came to 2.9.
For the molecule `CC1(C)CCC(CN2CCN(c3ccc(C(=O)NS(=O)(=O)c4ccc(NCC5CCOCC5)c([N+](=O)[O-])c4)c(Oc4cnc5[nH]ccc5c4)c3)CC2)=C(c2ccc(Cl)cc2)C1` [Venetoclax], in test [1], the “absolute EC50 for viability” value was greater than 1 µM. This molecule also registered a drug sensitivity score in test [2] of 0.
The like results for `CNC(=O)c1ccccc1Nc1nc(Nc2ccc3c(c2OC)CCC[C@H](N2CCN(CCO)CC2)C3)ncc1Cl` were, in that order, 1.17 µM and 6.6.
The like results for `CO[C@H]1C[C@@H]2CC[C@@H](C)[C@@](O)(O2)C(=O)C(=O)N2CCCC[C@H]2C(=O)O[C@H]([C@H](C)C[C@@H]2CC[C@@H](OC(=O)C(C)(CO)CO)[C@H](OC)C2)CC(=O)[C@H](C)/C=C(\C)[C@@H](O)[C@@H](OC)C(=O)[C@H](C)C[C@H](C)/C=C/C=C/C=C/1C` [Temsirolimus] were, in that order, greater than 0.1 µM and 7.4.
The like results for `COc1cc2c(cc1-c1c(C)noc1C)ncc1[nH]c(=O)n([C@H](C)c3ccccn3)c12` [I-BET151] were, in that order, greater than 10 µM and 3.5.
With `CCOC(=O)C1=CCCC[C@H]1S(=O)(=O)Nc1ccc(F)cc1Cl` [Resatorvid], the “absolute EC50 for viability” value in test [1] worked out at 9.93 µM. In test [2], this molecule showed a drug sensitivity score of 0.
The like results for `Cc1ncc(Cl)cc1NCc1ccc(C(=O)N[C@@H](CC2CCCC2)C(=O)NC2CC2)s1` were, in that order, greater than 5 µM and 0.
Consider `CC1(C)CC[C@]2(NC(=O)C(C)(F)F)CC[C@]3(C)[C@H](C(=O)C=C4[C@@]5(C)C=C(C#N)C(=O)C(C)(C)[C@@H]5CC[C@]43C)[C@@H]2C1` [Omaveloxolone], for which the “absolute EC50 for viability” value in test [1] was 3.77 µM. Besides, the drug sensitivity score in test [2] worked out at 4.7.
Turning to `N#Cc1ccnc(N2C(=O)CC[C@H]2C(=O)N(c2cncc(F)c2)[C@H](C(=O)NC2CC(F)(F)C2)c2ccccc2Cl)c1` [Ivosidenib], the “absolute EC50 for viability” value in test [1] is greater than 10 µM. For the same molecule, the drug sensitivity score in test [2] turned out to be 0.
The like results for `Cc1cc(Nc2cc(CN3CCOCC3)c3nc(C)c(Cc4ccc(Cl)cc4F)n3n2)n[nH]1` [Gandotinib] were, in that order, 2.49 µM and 6.3.
The like results for `NC(=O)c1cnc2[nH]ccc2c1NC1C2CC3CC1CC(O)(C3)C2` (stereo unspecified) [Peficitinb] were, in that order, greater than 2.5 µM and 1.7.
For the molecule `CCN(CC)CCNC(=O)c1c(C)[nH]c(/C=C2\C(=O)Nc3ccc(F)cc32)c1C` [Sunitinib], in test [1], the “absolute EC50 for viability” value was greater than 1 µM. Besides, the drug sensitivity score in test [2] was found to be 5.6.
As to `CN1CCN(c2ccc3nc(-c4c(N)c5c(F)cccc5[nH]c4=O)[nH]c3c2)CC1` [Dovitinib], the “absolute EC50 for viability” value in test [1] is greater than 10 µM. Besides, the drug sensitivity score in test [2] was 0.9.
`COc1cc2c(NC3CCN(C(C)C)CC3)nc(N3CCC(F)(F)CC3)nc2cc1OCCCN1CCCC1` [UNC0642]: the “absolute EC50 for viability” value in test [1] is 3.38 µM. This molecule also came in with a drug sensitivity score in test [2] of 5.2.
`N#Cc1ccc2[nH]c(O)c(-c3ccc(CN4CCOCC4)cn3)c2c1` [AZD-1080]: the “absolute EC50 for viability” value in test [1] is greater than 10 µM. Also, in test [2], the drug sensitivity score amounted to 0.
`Cc1cc(Nc2nc(N[C@@H](C)c3ncc(F)cn3)ncc2Cl)[nH]n1` [AZD1480]: in test [1], the “absolute EC50 for viability” value is greater than 1 µM. Further, in test [2], the drug sensitivity score was 0.6.
The like results for `COC(=O)N[C@@H](C)CNc1nccc(-c2cn(C(C)C)nc2-c2cc(Cl)cc(NS(C)(=O)=O)c2F)n1` [Encorafenib] were, in that order, greater than 1 µM and 0.
The like results for `Cc1[nH]c2ccccc2c1CCNCc1ccc(/C=C/C(=O)NO)cc1` [Panobinostat] were, in that order, 0.123 µM and 10.2.
`CC/C(=C(\c1ccccc1)c1ccc(OCCN(C)C)cc1)c1ccccc1` [Tamoxifen]: the “absolute EC50 for viability” value in test [1] is greater than 10 µM. This molecule yielded a drug sensitivity score in test [2] of 0.
The like results for `CC[C@@H]1C(=O)N(C)c2cnc(Nc3ccc(C(=O)NC4CCN(C)CC4)cc3OC)nc2N1C1CCCC1` [BI 2536] were, in that order, greater than 1 µM and 1.9.
For `CCN(CC)CCN(Cc1ccc(-c2ccc(C(F)(F)F)cc2)cc1)C(=O)Cn1c(SCc2ccc(F)cc2)nc(=O)c2c1CCC2` [Darapladib], the “absolute EC50 for viability” value in test [1] is greater than 1 µM. Besides, the drug sensitivity score in test [2] amounted to 0.
`CN(C(=O)c1ccc(F)cc1C(F)(F)F)C1CCN(c2nnc(-c3ccnn3C)c3ccccc23)CC1` [Taladegib]: the “absolute EC50 for viability” value in test [1] was greater than 10 µM. In test [2], the drug sensitivity score stood at 0.
The like results for `COc1ccc(CCc2nc3cc(-c4c(C)noc4C)ccc3n2C[C@H](C)N2CCOCC2)cc1Cl` [SGC-CBP30] were, in that order, greater than 25 µM and 2.1.
`O=C(NOC[C@H](O)CO)c1ccc(F)c(F)c1Nc1ccc(I)cc1F` [Mirdametinib]: the “absolute EC50 for viability” value in test [1] is greater than 1 µM. Further, the drug sensitivity score in test [2] was 2.1.
For the molecule `CNC(=O)[C@@H](NC(=O)[C@H](CC(C)C)[C@H](O)C(=O)NO)C(C)(C)C` [Marimastat], in test [1], the “absolute EC50 for viability” value is greater than 10 µM. The molecule also returned a drug sensitivity score in test [2] of 0.
Regarding `CN(CC(=O)N(Cc1ccc(C2CCCCC2)cc1)c1ccc(C(=O)O)cc1)S(=O)(=O)c1c(F)c(F)c(F)c(F)c1F` [SH-4-54], the “absolute EC50 for viability” value in test [1] is greater than 25 µM. Also, the drug sensitivity score in test [2] is 4.
The like results for `C[C@]1(O)C[C@@H](c2nc(-c3ccc4ccc(-c5ccccc5)nc4c3)c3c(N)nccn32)C1` [Linsitinib] were, in that order, greater than 10 µM and 2.9.
With `CC[C@@H](C(=O)[C@@H](C)[C@@H](O)[C@H](C)[C@@H]1O[C@@H]([C@@H](CC)C(=O)O)CC[C@@H]1C)[C@H]1O[C@]2(C=C[C@@H](O)[C@]3(CC[C@@](C)([C@H]4CC[C@](O)(CC)[C@H](C)O4)O3)O2)[C@H](C)C[C@@H]1C` [Salinomycin], the “absolute EC50 for viability” value in test [1] was 1.53 µM. In test [2], this molecule showed a drug sensitivity score of 16.8.
Regarding `O=C(Nc1cccnc1)N1CCC(Cc2cccc(Oc3ccc(C(F)(F)F)cn3)c2)CC1` [PF-3845], in test [1], the “absolute EC50 for viability” value amounted to 9.93 µM. This molecule also returned a drug sensitivity score in test [2] of 0.
For `Cc1cc(C)c(CNC(=O)c2cc(-c3ccc(CN4CCOCC4)cc3)cc3c2cnn3C2CCCC2)c(=O)[nH]1` [EPZ-5687], the “absolute EC50 for viability” value in test [1] was 9.93 µM. The molecule also yielded a drug sensitivity score in test [2] of 0.
The like results for `Cc1cccc(-c2nn3c(c2-c2ccnc4ccc(C(N)=O)cc24)CCC3)n1` [Galunisertib] were, in that order, greater than 1 µM and 0.
The like results for `C[C@]1(c2nc3c(C(N)=O)cccc3[nH]2)CCCN1` [Veliparib] were, in that order, greater than 10 µM and 0.
On to `Oc1nc(-c2ccc(C(F)(F)F)cc2)nc2c1CSCC2` [XAV-939], for which the “absolute EC50 for viability” value in test [1] is greater than 10 µM. For the same molecule, the drug sensitivity score in test [2] came to 1.5.
The like results for `CCN(CCCOc1ccc2c(Nc3cc(CC(=O)Nc4cccc(F)c4)[nH]n3)ncnc2c1)CCOP(=O)(O)O` [Barasertib] were, in that order, greater than 1 µM and 0.1.
The like results for `C=CC(=O)Nc1cc(Nc2nccc(-c3cn(C)c4ccccc34)n2)c(OC)cc1N(C)CCN(C)C` [Osimertinib] were, in that order, greater than 2.5 µM and 1.5.
The like results for `CC[C@H](C)C(=O)O[C@H]1C[C@H](O)C=C2C=C[C@H](C)[C@H](CC[C@@H](O)C[C@@H](O)CC(=O)O)[C@H]21` [Pravastatin] were, in that order, greater than 10 µM and 0.

These data come from the supplement of paper PMC9103864.
